In ChEMBL document CHEMBL3992552, “Mechanisms of action and structure-activity relationships of cytotoxic flavokawain derivatives” (Bioorg Med Chem, 2017):
Activity calls are given as the source filed them. The calls are words filed in the database; no cut-off is given here.

What was measured:
MDA-MB-231 [1] = experiment: Cell cycle arrest in human MDA-MB-231 cells harboring p53 mutant assessed as mitotic index at 10 uM measured after 48 hrs by Hoechst staining based fluorescence assay (reference value: 2.1); assay type: functional
NCI-H727 [2] = experiment: Cell cycle arrest in human NCI-H727 cells harboring p53 mutant assessed as accumulation at S phase at 25 uM measured after 48 hrs by Hoechst/BrdU staining based fluorescence assay (reference value: 40.3%); assay type: functional
HCT-116 [3] = experiment: Cell cycle arrest in human HCT116 cells harboring wild-type p53 assessed as accumulation at S phase at 25 uM measured after 48 hrs by Hoechst/BrdU staining based fluorescence assay (reference value: 68.4%); assay type: functional
[4] = Selectivity index, ratio of IC50 for human fibroblasts to IC50 for human PC3 cells
[5] = Selectivity index, ratio of IC50 for human fibroblasts to IC50 for human HCT116 cells
PC-3 [6] = experiment: Cell cycle arrest in human PC3 cells harboring p53 mutant assessed as mitotic index at 25 uM measured after 48 hrs by Hoechst staining based fluorescence assay (reference value: 2.5); assay type: functional
RL = experiment: Cytotoxicity against human RL assessed as cell viability after 48 hrs by Hoechst 33342 staining based assay; assay type: functional
HCT-116 [7] = experiment: Cell cycle arrest in human HCT116 cells harboring wild-type p53 assessed as accumulation at S phase at 10 uM measured after 48 hrs by Hoechst/BrdU staining based fluorescence assay (reference value: 68.4%); assay type: functional
Huh-7 [8] = experiment: Cell cycle arrest in human HuH7 cells assessed as mitotic index at 10 uM measured after 48 hrs by Hoechst staining based fluorescence assay (reference value: 2.2); assay type: functional
MCF7 = experiment: Cytotoxicity against human MCF7 assessed as cell viability after 48 hrs by Hoechst 33342 staining based assay; assay type: functional; conditions: MCF7, 48 h
Caco-2 [9] = experiment: Cytotoxicity against human Caco2 cells assessed as cell viability after 48 hrs by Hoechst 33342 staining based assay; assay type: functional; conditions: Caco-2, 48 h
Huh-7 [10] = experiment: Cell cycle arrest in human HuH7 cells assessed as accumulation at S phase at 25 uM measured after 48 hrs by Hoechst/BrdU staining based fluorescence assay (reference value: 44%); assay type: functional
NCI-H727 [11] = experiment: Cell cycle arrest in human NCI-H727 cells harboring p53 mutant assessed as mitotic index at 25 uM measured after 48 hrs by Hoechst staining based fluorescence assay (reference value: 1.1); assay type: functional
NCI-H727 [12] = experiment: Cell cycle arrest in human NCI-H727 cells harboring p53 mutant assessed as mitotic index at 10 uM measured after 48 hrs by Hoechst staining based fluorescence assay (reference value: 1.1); assay type: functional
PC-3 [13] = experiment: Cell cycle arrest in human PC3 cells harboring p53 mutant assessed as accumulation at S phase at 10 uM measured after 48 hrs by Hoechst/BrdU staining based fluorescence assay (reference value: 40.8%); assay type: functional
MDA-MB-231 [14] = experiment: Cell cycle arrest in human MDA-MB-231 cells harboring p53 mutant assessed as mitotic index at 25 uM measured after 48 hrs by Hoechst staining based fluorescence assay (reference value: 2.1); assay type: functional
HaCaT [15] = experiment: Cell cycle arrest in human HaCaT cells assessed as accumulation at G1/S phase by Hoechst staining based fluorescence assay; assay type: functional
HCT-116 [16] = experiment: Cytotoxicity against human HCT116 cells assessed as cell viability after 48 hrs by Hoechst 33342 staining based assay; assay type: functional; conditions: HCT-116, 48 h
HaCaT [17] = experiment: Cytotoxicity against human HaCaT cells assessed as cell viability after 48 hrs by Hoechst 33342 staining based assay; assay type: functional
Caco-2 [18] = experiment: Cell cycle arrest in human Caco2 cells assessed as mitotic index at 10 uM measured after 48 hrs by Hoechst staining based fluorescence assay (reference value: 3.6); assay type: functional
MDA-MB-231 [19] = experiment: Cell cycle arrest in human MDA-MB-231 cells harboring p53 mutant assessed as accumulation at S phase at 25 uM measured after 48 hrs by Hoechst/BrdU staining based fluorescence assay (reference value: 42.2%); assay type: functional
PC-3 [20] = experiment: Cell cycle arrest in human PC3 cells harboring p53 mutant assessed as accumulation at S phase at 25 uM measured after 48 hrs by Hoechst/BrdU staining based fluorescence assay (reference value: 40.8%); assay type: functional
PC-3 [21] = experiment: Cell cycle arrest in human PC3 cells assessed as accumulation at G1/S phase by Hoechst staining based fluorescence assay; assay type: functional
HaCaT [22] = experiment: Cell cycle arrest in human HaCaT cells harboring […] p53 assessed as mitotic index at 25 uM measured after 48 hrs by Hoechst staining based fluorescence assay (reference value: 2.6); assay type: functional
Caco-2 [23] = experiment: Cell cycle arrest in human Caco2 cells assessed as accumulation at S phase at 25 uM measured after 48 hrs by Hoechst/BrdU staining based fluorescence assay (reference value: […]); assay type: functional
Caco-2 [24] = experiment: Cell cycle arrest in human Caco2 cells assessed as mitotic index at 25 uM measured after 48 hrs by Hoechst staining based fluorescence assay (reference value: 3.6); assay type: functional
MDA-MB-231 [25] = experiment: Cell cycle arrest in human MDA-MB-231 cells harboring p53 mutant assessed as accumulation at S phase at 10 uM measured after 48 hrs by Hoechst/BrdU staining based fluorescence assay (reference value: 42.2%); assay type: functional
NCI-H727 [26] = experiment: Cytotoxicity against human NCI-H727 cells assessed as cell viability after 48 hrs by Hoechst 33342 staining based assay; assay type: functional; conditions: NCI-H727, 48 h
Caco-2 [27] = experiment: Cell cycle arrest in human Caco2 cells assessed as accumulation at S phase at 10 uM measured after 48 hrs by Hoechst/BrdU staining based fluorescence assay (reference value: […]); assay type: functional
NCI-H727 [28] = experiment: Cell cycle arrest in human NCI-H727 cells harboring p53 mutant assessed as accumulation at S phase at 10 uM measured after 48 hrs by Hoechst/BrdU staining based fluorescence assay (reference value: 40.3%); assay type: functional
[29] = Selectivity index, ratio of IC50 for human fibroblasts to IC50 for human MCF7 cells
[30] = Selectivity index, ratio of IC50 for human fibroblasts to IC50 for human Caco2 cells
[31] = Selectivity index, ratio of IC50 for human fibroblasts to IC50 for human HaCaT cells
HCT-116 [32] = experiment: Cell cycle arrest in human HCT116 cells assessed as accumulation at G2/M phase by Hoechst staining based fluorescence assay; assay type: functional
PC-3 [33] = experiment: Cell cycle arrest in human PC3 cells harboring p53 mutant assessed as mitotic index at 10 uM measured after 48 hrs by Hoechst staining based fluorescence assay (reference value: 2.5); assay type: functional
MDA-MB-231 [34] = experiment: Cytotoxicity against human MDA-MB-231 cells assessed as cell viability after 48 hrs by Hoechst 33342 staining based assay; assay type: functional; conditions: MDA-MB-231, 48 h
[35] = Selectivity index, ratio of IC50 for human fibroblasts to IC50 for human RL cells
Huh-7 [36] = experiment: Cytotoxicity against human HuH7 cells assessed as cell viability after 48 hrs by Hoechst 33342 staining based assay; assay type: functional; conditions: Huh-7, 48 h
HaCaT [37] = experiment: Cell cycle arrest in human HaCaT cells harboring […] p53 assessed as accumulation at S phase at 10 uM measured after 48 hrs by Hoechst/BrdU staining based fluorescence assay (reference value: 52.3%); assay type: functional
HaCaT [38] = experiment: Cell cycle arrest in human HaCaT cells harboring […] p53 assessed as accumulation at S phase at 25 uM measured after 48 hrs by Hoechst/BrdU staining based fluorescence assay (reference value: 52.3%); assay type: functional
PC-3 [39] = experiment: Cytotoxicity against human PC3 cells assessed as cell viability after 48 hrs by Hoechst 33342 staining based assay; assay type: functional; conditions: PC-3, 48 h
HCT-116 [40] = experiment: Cell cycle arrest in human HCT116 cells harboring wild-type p53 assessed as mitotic index at 10 uM measured after 48 hrs by Hoechst staining based fluorescence assay (reference value: 2.3); assay type: functional
Huh-7 [41] = experiment: Cell cycle arrest in human HuH7 cells assessed as accumulation at S phase at 10 uM measured after 48 hrs by Hoechst/BrdU staining based fluorescence assay (reference value: 44%); assay type: functional
Fibroblast = experiment: Cytotoxicity against human fibroblasts assessed as cell viability after 48 hrs by Hoechst 33342 staining based assay
Huh-7 [42] = experiment: Cell cycle arrest in human HuH7 cells assessed as mitotic index at 25 uM measured after 48 hrs by Hoechst staining based fluorescence assay (reference value: 2.2); assay type: functional
HCT-116 [43] = experiment: Cell cycle arrest in human HCT116 cells harboring wild-type p53 assessed as mitotic index at 25 uM measured after 48 hrs by Hoechst staining based fluorescence assay (reference value: 2.3); assay type: functional
HaCaT [44] = experiment: Cell cycle arrest in human HaCaT cells harboring […] p53 assessed as mitotic index at 10 uM measured after 48 hrs by Hoechst staining based fluorescence assay (reference value: 2.6); assay type: functional
PC-3 [45] = experiment: Cell cycle arrest in human PC3 cells assessed as accumulation at G2/M phase by Hoechst staining based fluorescence assay; assay type: functional
HCT-116 [46] = experiment: Cell cycle arrest in human HCT116 cells harboring wild-type p53 assessed as accumulation at M phase at 50 uM measured after 48 hrs by Hoechst staining based fluorescence assay (reference value: 2.3 to […]); assay type: functional
MDA-MB-231 [47] = experiment: Cell cycle arrest in human MDA-MB-231 cells assessed as accumulation at G1/S phase by Hoechst staining based fluorescence assay; assay type: functional
Huh-7 [48] = experiment: Cell cycle arrest in human HuH7 cells assessed as accumulation at G1/S phase by Hoechst staining based fluorescence assay; assay type: functional
HCT-116 [49] = experiment: Cell cycle arrest in human HCT116 cells harboring wild-type p53 assessed as accumulation at S phase at 25 uM measured after 48 hrs by Hoechst/BrdU staining based fluorescence assay (reference value: 68%); assay type: functional
HCT-116 [50] = experiment: Cell cycle arrest in human HCT116 cells assessed as accumulation at G1/S phase by Hoechst staining based fluorescence assay; assay type: functional
HCT-116 [51] = experiment: Cell cycle arrest in human HCT116 cells harboring wild-type p53 assessed as accumulation at S phase at 50 uM measured after 48 hrs by Hoechst/BrdU staining based fluorescence assay (reference value: 68%); assay type: functional
HCT-116 [52] = experiment: Cell cycle arrest in human HCT116 cells harboring wild-type p53 assessed as accumulation at M phase at 25 uM measured after 48 hrs by Hoechst staining based fluorescence assay (reference value: 2.3 to […]); assay type: functional

## Oc1cccc(-c2nc(N3CCOCC3)c3oc4ncccc4c3n2)c1 [PI-103]
MDA-MB-231 [1]
  Activity: inactive
NCI-H727 [2]
  Activity: inactive
HCT-116 [3]
  Activity: 63%
[4]
  Ratio IC50: >3.3
[5]
  Ratio IC50: >6.4
PC-3 [6]
  Activity_index: 0.1
RL
  IC50: 2.9 µM
HCT-116 [7]
  Activity: 63%
Huh-7 [8]
  Activity: inactive
MCF7
  IC50: 13.3 µM
Caco-2 [9]
  IC50: 2 µM
Huh-7 [10]
  Activity: inactive
NCI-H727 [11]
  Activity: inactive
NCI-H727 [12]
  Activity: inactive
PC-3 [13]
  Activity: 6%
MDA-MB-231 [14]
  Activity: inactive
HaCaT [15]
  Activity: Active
HCT-116 [16]
  IC50: 3.9 µM
HaCaT [17]
  IC50: 3.5 µM
Caco-2 [18]
  Activity_index: 1.4
MDA-MB-231 [19]
  Activity: inactive
PC-3 [20]
  Activity: 1.2%
PC-3 [21]
  Activity: Active
HaCaT [22]
  Activity_index: 0.5
Caco-2 [23]
  Activity: 20%
Caco-2 [24]
  Activity_index: 0.9
MDA-MB-231 [25]
  Activity: inactive
NCI-H727 [26]
  IC50: > 20 µM
Caco-2 [27]
  Activity: 28%
NCI-H727 [28]
  Activity: inactive
[29]
  Ratio IC50: >1.9
[30]
  Ratio IC50: >12.5
[31]
  Ratio IC50: >7.1
HCT-116 [32]
  Activity: Active
PC-3 [33]
  Activity_index: 0.4
MDA-MB-231 [34]
  IC50: > 20 µM
[35]
  Ratio IC50: >8.6
Huh-7 [36]
  IC50: > 20 µM
HaCaT [37]
  Activity: 20%
HaCaT [38]
  Activity: 12%
PC-3 [39]
  IC50: 7.6 µM
HCT-116 [40]
  Activity_index: 1.9
Huh-7 [41]
  Activity: inactive
Fibroblast
  IC50: > 20 µM
Huh-7 [42]
  Activity: inactive
HCT-116 [43]
  Activity_index: 1.8
HaCaT [44]
  Activity_index: 0.9

## CC[C@H](CO)Nc1nc(NCc2ccccc2)c2ncn(C(C)C)c2n1 [SELICICLIB]
NCI-H727 [2]
  Activity: inactive
HCT-116 [3]
  Activity: 17%
RL
  IC50: 0.9 µM
HCT-116 [7]
  Activity: 25%
PC-3 [45]
  Activity: Active
MCF7
  IC50: 10.2 µM
HCT-116 [46]
  Activity: 0.6%
MDA-MB-231 [47]
  Activity: Active
Huh-7 [10]
  Activity: 9%
NCI-H727 [11]
  Activity: inactive
NCI-H727 [12]
  Activity: inactive
Huh-7 [48]
  Activity: Active
PC-3 [13]
  Activity: 17%
HCT-116 [49]
  Activity: 25%
HaCaT [15]
  Activity: Active
HaCaT [17]
  IC50: 16.7 µM
HCT-116 [50]
  Activity: Active
MDA-MB-231 [19]
  Activity: 25%
PC-3 [20]
  Activity: 38%
HCT-116 [51]
  Activity: 17%
MDA-MB-231 [25]
  Activity: 27%
NCI-H727 [26]
  IC50: > 20 µM
NCI-H727 [28]
  Activity: inactive
HCT-116 [52]
  Activity: 1.2%
MDA-MB-231 [34]
  IC50: 16.8 µM
Huh-7 [36]
  IC50: 15.4 µM
HaCaT [37]
  Activity: 26%
HaCaT [38]
  Activity: 3%
PC-3 [39]
  IC50: 16.5 µM
Huh-7 [41]
  Activity: 16%
Fibroblast
  IC50: > 20 µM
